{"source": "patent US7741431B2", "about": "“Liposomes containing novel targeting and/or fusogenic peptides, preparations containing them and therapeutic use thereof” (The United States of America as represented by the …, priority 2005, dated 2010)", "key": {"[1]": {"experiment": "Liposome fusion assay (Rhodamine B R18 dequenching)", "text": "Liposomes are picked-up by cells by endocytosis and form an endosome. Within a few minutes the pH in the endosome drops to 5 and degradation begins. In order to accelerate the fusion of the liposome with the endosome membrane and release its DNA content into the cytoplasm, fusogenic peptides (Plank et al., 1994, Puyal et al., 1994), triggered by the low pH, are integrated into the liposomes membrane (0.1-2%). The most suitable fusogenic peptide and its concentration in the liposome are selected, using in-vitro fluorescence method (Hoekstra et al., 1984) at different pH levels.\nRhodamine B (R18) quenching curve: Rhodamine is characterized by self-quenching, which increases linearly with increasing concentration of R18. […] A total fusion of the two types of liposomes would result in a reduction of R18 concentration or quenching by ˜50%. Since liposomes also tend to fuse with their own type, this high level of fusion can never be achieved.\nLiposomes containing 8 Mol % of R18 are mixed with liposomes conjugated to the fusion peptide at pH 7.4 and the fluorescence is measured using […] at λ=550 nm and emission at λ=580 nm. The pH is adjusted to 5.0 by adding few drops of 1N HCl and the change in fluorescence is measured. The total fluorescence is then determined by treating the mixture with Triton X-100. […]"}, "[2]": {"system": "lung epithelial cells (A-549)", "format": "cell-based, human"}, "mast cells (RBL-2H3)": {"system": "mast cells (RBL-2H3)", "format": "cell-based"}}, "note": "Entries after “also recorded” stand apart in the source; their conditions may differ.", "data": [{"substance": "SEQ ID NO: 2: fusogenic peptide derived from the amphiphatic, pH-dependent peptide of influenza virus hemagglutinin (CGYWGDIMGEWGDEIFGEIAGFLG)", "values": [{"measurement": "activity as a fusogen", "setting": "[1]", "value": "highly active"}]}, {"substance": "SEQ ID NO: 1: targeting peptide whose sequence derives from endothelin-1, for lung mast cells and lung epithelial cells (CHLDIIW)", "values": [{"measurement": "binding / targeting to lung epithelial cells", "setting": "[2]", "value": "efficient targeting peptide; also recorded: high affinity"}, {"measurement": "binding / targeting to mast cells", "setting": "mast cells (RBL-2H3)", "value": "efficient targeting peptide; also recorded: high affinity"}]}]}
